Source: patent US5968910A, “Compositions containing two or three inhibitors of different HIV reverse transcriptases” (priority 1994, dated 1999)
Where two headings read alike, the source gives them in different places.

Tested on: HIV-1
Assay: Breakthrough of mutant HIV-1 strains in CEM cell cultures, single drugs and double/triple combinations
Type: cell-based
Details: for activity at 0.04 µg/mL / activity at 0.1 µg/mL / activity at 0.25 µg/mL: Human immunodeficiency virus 1, CCRF-CEM, read-out: HIV-1-induced syncytium formation in CEM cells; for activity at 0.04 µg/mL: single drug 0.04 μg/ml; for activity at 0.1 µg/mL: single drug 0.10 μg/ml; for activity at 0.25 µg/mL: single drug 0.25 μg/ml
Method: The culture medium consisted of RPMI 1640 containing 10% fetal bovine serum, 2 mM L-glutamine, and 0.075% NaHCO3. The multiplicity of the initial infection was ~1000 times the CCID50 (50% cell culture infective dose). Passages were performed every 3 to 4 days by adding 0.5 to 1.0 ml of the infected culture supernatant to 5 ml of a suspension containing 4×10^5 uninfected CEM cells per ml. Syncytium formation was used as a parameter of virus breakthrough in the cell cultures. In the drug combination experiments, the compounds were combined at the same initial concentrations as used for the two lowest concentrations in the single-drug experiments.
Compound IV, BHAP and TSAO-m^3 T were added to HIV-1-infected CEM cell cultures at 0.04, 0.10 and 0.25 ug/ml (Compound IV and BHAP) or 1.0, 2.5 and 5.0 μg/ml (TSAO-m^3 T). In addition, various double- and triple-drug combinations of Compound IV, BHAP and TSAO-m^3 T were performed, combining these inhibitors at their lowest (0.04 μg/ml) or intermediary (0.1 μg/ml) concentration as used in the single-drug experiments.

SMILES: Cc1occc1C(=S)Nc1ccc(Cl)c(C(=O)OC2CCCC2)c1 [Compound IV]
- activity at 0.04 µg/mL (96 h, day 4 post infection): 0%
- activity at 0.1 µg/mL (96 h, day 4 post infection): 0%
- activity at 0.25 µg/mL (96 h, day 4 post infection): 0%
- activity at 0.04 µg/mL (168 h, day 7 post infection): 0%
- activity at 0.1 µg/mL (168 h, day 7 post infection): 0%
- activity at 0.25 µg/mL (168 h, day 7 post infection): 0%
- activity at 0.04 µg/mL (264 h, day 11 post infection): 6.25%
- activity at 0.1 µg/mL (264 h, day 11 post infection): 0%
- activity at 0.25 µg/mL (264 h, day 11 post infection): 0%
- activity at 0.04 µg/mL (336 h, day 14 post infection): 12.5%
- activity at 0.1 µg/mL (336 h, day 14 post infection): 6.25%
- activity at 0.25 µg/mL (336 h, day 14 post infection): 0%
- activity at 0.04 µg/mL (432 h, day 18 post infection): 100%
- activity at 0.1 µg/mL (432 h, day 18 post infection): 6.25%
- activity at 0.25 µg/mL (432 h, day 18 post infection): 0%
- activity at 0.04 µg/mL (504 h, day 21 post infection): 100%
- activity at 0.1 µg/mL (504 h, day 21 post infection): 87.5%
- activity at 0.25 µg/mL (504 h, day 21 post infection): 3.12%
- activity at 0.04 µg/mL (600 h, day 25 post infection): 100%
- activity at 0.1 µg/mL (600 h, day 25 post infection): 87.5%
- activity at 0.25 µg/mL (600 h, day 25 post infection): 19%
- activity at 0.04 µg/mL (672 h, day 28 post infection): 100%
- activity at 0.1 µg/mL (672 h, day 28 post infection): 100%
- activity at 0.25 µg/mL (672 h, day 28 post infection): 75%
- activity at 0.04 µg/mL (768 h, day 32 post infection): 100%
- activity at 0.1 µg/mL (768 h, day 32 post infection): 100%
- activity at 0.25 µg/mL (768 h, day 32 post infection): 100%
- activity at 0.04 µg/mL (840 h, day 35 post infection): 100%
- activity at 0.1 µg/mL (840 h, day 35 post infection): 100%
- activity at 0.25 µg/mL (840 h, day 35 post infection): 100%
- activity at 0.04 µg/mL (936 h, day 39 post infection): 100%
- activity at 0.1 µg/mL (936 h, day 39 post infection): 100%
- activity at 0.25 µg/mL (936 h, day 39 post infection): 100%
- activity at 0.04 µg/mL (1008 h, day 42 post infection): 100%
- activity at 0.1 µg/mL (1008 h, day 42 post infection): 100%
- activity at 0.25 µg/mL (1008 h, day 42 post infection): 100%
- activity at 0.04 µg/mL (1104 h, day 46 post infection): 100%
- activity at 0.1 µg/mL (1104 h, day 46 post infection): 100%
- activity at 0.25 µg/mL (1104 h, day 46 post infection): 100%
- activity at 0.04 µg/mL (1176 h, day 49 post infection): 100%
- activity at 0.1 µg/mL (1176 h, day 49 post infection): 100%
- activity at 0.25 µg/mL (1176 h, day 49 post infection): 100%
- activity at 0.04 µg/mL (1272 h, day 53 post infection): 100%
- activity at 0.1 µg/mL (1272 h, day 53 post infection): 100%
- activity at 0.25 µg/mL (1272 h, day 53 post infection): 100%
- activity at 0.04 µg/mL (1344 h, day 56 post infection): 100%
- activity at 0.1 µg/mL (1344 h, day 56 post infection): 100%
- activity at 0.25 µg/mL (1344 h, day 56 post infection): 100%
- activity at 0.04 µg/mL (1440 h, day 60 post infection): 100%
- activity at 0.1 µg/mL (1440 h, day 60 post infection): 100%
- activity at 0.25 µg/mL (1440 h, day 60 post infection): 100%
- activity at 0.04 µg/mL (1536 h, day 64 post infection): 100%
- activity at 0.1 µg/mL (1536 h, day 64 post infection): 100%
- activity at 0.25 µg/mL (1536 h, day 64 post infection): 100%
- activity at 0.04 µg/mL (1608 h, day 67 post infection): 100%
- activity at 0.1 µg/mL (1608 h, day 67 post infection): 100%
- activity at 0.25 µg/mL (1608 h, day 67 post infection): 100%
- activity at 0.04 µg/mL (1704 h, day 71 post infection): 100%
- activity at 0.1 µg/mL (1704 h, day 71 post infection): 100%
- activity at 0.25 µg/mL (1704 h, day 71 post infection): 100%
- activity at 0.04 µg/mL (1776 h, day 74 post infection): 100%
- activity at 0.1 µg/mL (1776 h, day 74 post infection): 100%
- activity at 0.25 µg/mL (1776 h, day 74 post infection): 100%
- activity at 0.04 µg/mL (1848 h, day 77 post infection): 100%
- activity at 0.1 µg/mL (1848 h, day 77 post infection): 100%
- activity at 0.25 µg/mL (1848 h, day 77 post infection): 100%
- virus breakthrough delayed till day (single drug, highest concentration): 21 days
